From patent publication US8377948B2, “Antitumor agents and methods of their use” (The Ohio State University Research Foundation, priority 2004, dated 2013)
Values belong to the molecule of their own block, whether it stands above or below them.

What was measured:
[1] = tested on: different prostate cancer cell lines; test: Proliferation of different prostate cancer cell lines; format: cell-based; details: at low μM levels
Description: (§1) Further structural improvement was accomplished by replacing the methoxy side chains on the quinazoline ring with propoxy functions. Both 33 and 44 were effective in suppressing the proliferation of different prostate cancer cell lines at low μM levels. In addition, both agents were submitted to the Developmental Therapeutic Program (DTP) at the National Cancer Institute (NCI) for screening against sixty human tumor cells lines, representing leukemia, melanoma, and cancers of lung, colon, brain, ovary, breast, prostate, and kidney.

PC-3 cells [2] = test: Cell viability / apoptotic death of PC-3 cells in 1% FBS-supplemented RPMI 1640 medium; format: cell-based, human; details: for IC50: 1% FBS-supplemented medium
Description: (§2) (A) Left panel, Time- and dose-dependent effect of doxazosin on the cell viability of PC-3 cells in 1% FBS-supplemented RPMI 1640 medium. Values obtained from six replicates were plotted at each time point at the indicated concentrations of doxazosin. Right panel, induction of poly(ADP-ribose) polymerase (PARP) cleavage by doxazosin at the indicated concentrations after 48-h treatment. PARP proteolysis to the apoptosis-specific 85-kd fragment was monitored by Western blotting. Although there was no substantial accumulation of the 85-kd fragment, significant decrease in the level of native protein was noted. (B) Dose- and time-dependent (upper and lower panels, respectively) effects of doxazosin on Akt phosphorylation. (C) dose-dependent effect of doxazosin on ERK phosphorylation. PC-3 cells were treated with doxazosin at the indicated concentrations for 24 h or at 25 μM for the indicated times and lysed, and proteins in the resulting supernatants were resolved on SDS-PAGE and subjected to Western blot analysis. The phosphorylation status of Akt and ERKs was determined by immunoblotting with the respective phospho-specific antibodies. Unphosphorylated Akt and ERKs, as immunostained by anti-Akt and anti-ERK antibodies, were used as internal standards for the comparison of phospho-Akt and phospho-ERK levels among samples of different preparations. The blots are representative of three independent experiments.
(§3) (B) Western blot analysis of […] proteolysis and Akt dephosphorylation in PC-3 cells treated with the indicated concentrations of 33 for 48 h. (C) Effects of compound 44 on Akt phosphorylation in PC-3 cells treated with the indicated concentrations for 48 h.
(§4) Effect of the test agent on cell viability was assessed by the MTT {[3-(4,5-dimethylthiazol-2-yl)-2,5-diphenyl-2H-tetrazolium bromide]} assay in 96-well, flat-bottomed plates, in which 8,000 PC-3 or DU-145 cells/well were seeded. Cells were exposed to the test agent at the indicated concentrations, in six replicates, in 10% FBS-supplemented-RPMI-1640 medium at 37° C. in 5% CO2 for 48 hr. The medium was removed and replaced by 150 μL of 0.5 mg/mL of MTT in RPMI-1640 medium, and cells were incubated in the CO2 incubator at 37° C. for 2 h. Supernatants were removed from the wells, and the reduced MTT dye was solubilized with 200 μL/well DMSO. Absorbance was determined on a plate reader at 570 nm.
Doxazosin induced apoptosis, in part, by facilitating Akt dephosphorylation. […] The potency of doxazosin in inducing apoptosis, however, was moderate.

PC-3 cells [3] = test: MTT cell viability assay, PC-3 cells in 10% FBS medium; format: cell-based, human; details: RPMI 1640 with 10% FBS, means ± S.D. (n = 6)
Experimental: PC-3 (p53−/−) human androgen-nonresponsive prostate cancer cells were purchased from the American Type Tissue Collection (Manassas, Va.). Cells were cultured in RPMI 1640 medium (Gibco, Grand Island, N.Y.) supplemented with 10% fetal bovine serum (FBS; Gibco) at 37° C. in a humidified incubator containing 5% CO2.
as §4
All compounds were evaluated for their ability to induce apoptotic death in human androgen-independent PC-3 prostate cancer in RPMI 1640 medium containing 10% fetal bovine serum (FBS). For representative compounds tested in DU-145 and LNCaP prostate cancer cells, the IC50 values for inhibiting cell proliferation were similar in these three cell lines irrespective of differences in androgen sensitivity, PTEN mutation, the functional status of p53 and Rb, and other biomarkers.

Akt = test: Western blot analysis of Akt phosphorylation in PC-3 cells; format: cell-based, human; details: for effect on Akt phosphorylation: Western blot
Description: as §2, §3
PC-3 cells (1.5×106) treated with the test agent at the indicated concentrations in RPMI 1640 medium for 24 h were collected and sonicated. Protein concentrations of the lysates were determined by using a Bradford protein assay kit (Bio-Rad, Hercules, Calif.); equivalent amounts of proteins from each lysate were resolved in 10% SDS-polyacrylamide gel and then transferred onto Immobilon-nitrocellulose membranes (Millipore, Bellerica, MA) in a semidry transfer cell. The transblotted membrane was washed twice with Tris-buffered saline (TBS) containing 0.1% Tween 20 (TBST). After blocking with TBST containing 5% nonfat milk for 40 min, the membrane was incubated with the primary antibody (1:1000 dilution) in TBST-1% nonfat milk at 4° C. overnight. After treatment with the primary antibody, the membrane was washed three times with TBST for a total of 15 min, followed by goat anti-rabbit or anti-mouse IgG-horseradish peroxidase conjugates (diluted 1:3000) for 1 h at room temperature and wash three times with TBST for a total of 1 h. The immunoblots were visualized by enhanced chemiluminescence.

[4] = tested on: sixty human tumor cells lines; test: NCI Developmental Therapeutic Program screening against sixty human tumor cell lines; format: cell-based; details: for GI50: Homo sapiens, mean among sixty cell lines, read-out: mean GI50 (concentration resulting in 50% growth inhibition); for sensitivity of all tested cell lines to growth inhibitory effects: sixty cell lines
Description: as §1

serum proteins = details: cited from earlier work
[5] = tested on: PC-3 cells overexpressing Akt^T308D/S473D; test: Viability of PC-3 cells transiently transfected with constitutively active Akt; format: cell-based, human; details: 25 μM, 1% FBS-supplemented medium, 24 h, versus empty pcDNA vector
Experimental: (A) Expression of Akt^T308D/S473D in PC-3 transient transfection. Western blot analysis used antibodies against Akt, and the HA tag. B) Viability of PC-3 cells overexpressing Akt^T308D/S473D vis-à-vis cells transfected with empty pcDNA vector (mock) in the presence of 25 μM doxazosin in 1% FBS-supplemented medium for 24 h. Values are means±S.D. (n=3).
The constitutively active Akt construct HA-PKB-T308D/S473D was kindly provided by Dr. Brain Hemmings (Friedrich Miescher Institute, Basel, Switzerland). PC-3 cells were seeded into T-75 flasks (1.5×10^6/flask). Aliquots containing 3 μg of each plasmid or a control pcDNA3.1(+) vector in 750 μl of Opti-MEM medium (Invitrogen-Life Technologies, Inc.,) was incubated with 9 μl of the FuGene 6 reagent (Roche Diagnostics Corp., Indianapolis, Ind.) for 15 min. Each flask was washed with Opti-MEM medium and then received the plasmid-FuGene 6 mixture and 4 ml of Opti-MEM medium. The flask was placed in a CO2 incubator for 4 h, and the transfection medium was replaced with 10% FBS-supplemented RPMI 1640. […]
To examine the causal relationship between Akt deactivation and doxazosin-mediated apoptosis, the protective effect of the transient transfection of constitutively active Akt, Akt^T308D/S473D (ref. 14), on drug-induced PC-3 cell death, was assessed. […]

ERKs = test: Western blot analysis of ERK phosphorylation in PC-3 cells; format: cell-based, human; details: even at 50 μM
Description: (A) Left panel, Time- and dose-dependent effect of doxazosin on the cell viability of PC-3 cells in 1% FBS-supplemented RPMI 1640 medium. Values obtained from six replicates were plotted at each time point at the indicated concentrations of doxazosin. Right panel, induction of poly(ADP-ribose) polymerase (PARP) cleavage by doxazosin at the indicated concentrations after 48-h treatment. PARP proteolysis to the apoptosis-specific 85-kd fragment was monitored by Western blotting. Although there was no substantial accumulation of the 85-kd fragment, significant decrease in the level of native protein was noted. (B) Dose- and time-dependent (upper and lower panels, respectively) effects of doxazosin on Akt phosphorylation. (C) dose-dependent effect of doxazosin on ERK phosphorylation. […] The phosphorylation status of Akt and ERKs was determined by immunoblotting with the respective phospho-specific antibodies. […]
PC-3 cells (1.5×106) treated with the test agent at the indicated concentrations in RPMI 1640 medium for 24 h were collected and sonicated. Protein concentrations of the lysates were determined by using a Bradford protein assay kit (Bio-Rad, Hercules, Calif.); equivalent amounts of proteins from each lysate were resolved in 10% SDS-polyacrylamide gel and then transferred onto Immobilon-nitrocellulose membranes (Millipore, Bellerica, MA) in a semidry transfer cell. […]

immunoprecipitated Akt = immunoprecipitated Akt (Homo sapiens, UniProt P31749); test: Kinase activity of immunoprecipitated Akt; format: biochemical
Chain of immunoprecipitated Akt (P31749 whole entry): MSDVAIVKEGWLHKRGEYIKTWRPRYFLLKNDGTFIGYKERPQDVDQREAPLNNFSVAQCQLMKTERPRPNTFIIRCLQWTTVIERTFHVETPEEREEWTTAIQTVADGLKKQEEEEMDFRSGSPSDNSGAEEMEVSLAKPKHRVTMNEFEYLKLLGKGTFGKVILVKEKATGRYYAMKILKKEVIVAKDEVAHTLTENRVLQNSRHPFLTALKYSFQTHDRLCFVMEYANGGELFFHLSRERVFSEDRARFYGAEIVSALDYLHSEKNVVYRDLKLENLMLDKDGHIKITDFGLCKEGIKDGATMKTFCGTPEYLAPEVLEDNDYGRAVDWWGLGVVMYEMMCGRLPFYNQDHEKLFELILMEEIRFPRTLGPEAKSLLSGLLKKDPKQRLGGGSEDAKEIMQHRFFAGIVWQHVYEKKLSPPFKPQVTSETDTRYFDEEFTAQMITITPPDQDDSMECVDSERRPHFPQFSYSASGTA

Structure (SMILES): COc1cc2nc(N3CCN(S(=O)(=O)c4ccc(-c5ccccc5)cc4)CC3)nc(N)c2cc1OC [Compound 33, 2-[4-(Biphenyl-4-sulfonyl)-piperazin-1-yl]-6,7-dimethoxy-quinazolin-4-ylamine]
suppressing the proliferation [1]: effective
IC50 (PC-3 cells [2]; Homo sapiens, 48 h, read-out: IC50): ~2.5 µM
IC50 (PC-3 cells [3]; Homo sapiens, PC-3, 48 h): 4 to 5 µM
IC50 (PC-3 cells [3]; 48 h): 4.2 ± 0.8 µM
effect on Akt phosphorylation (Akt): inhibition of Akt activation
GI50 [4]: 2200 nM
sensitivity of all tested cell lines to growth inhibitory effects [4]: high degree of sensitivity

Structure (SMILES): C=CCOc1cc2nc(N3CCN(S(=O)(=O)c4ccc(-c5ccccc5)cc4)CC3)nc(N)c2cc1OCC=C [Compound 43, 6,7-Bis-allyloxy-2-[4-(biphenyl-4-sulfonyl)-piperazin-1-yl]-quinazolin-4-ylamine]
IC50 (PC-3 cells [3]; Homo sapiens, PC-3, 48 h): 3.3 ± 0.4 µM

Structure (SMILES): CCCOc1cc2nc(N3CCN(S(=O)(=O)c4ccc(-c5ccccc5)cc4)CC3)nc(N)c2cc1OCCC [Compound 44, 2-[4-(Biphenyl-4-sulfonyl)-piperazin-1-yl]-6,7-dipropoxy-quinazolin-4-yl-amine]
suppressing the proliferation [1]: effective
IC50 (PC-3 cells [3]; Homo sapiens, PC-3, 48 h): 2.5 µM
concentration at which dephosphorylation of phospho-Akt was evident (as low as) (Akt; 48 h, Western blot (FIG. 6C)): 1 µM
effect on Akt phosphorylation (Akt): dephosphorylation of phospho-Akt in a dose-dependent manner
GI50 [4]: 1500 nM
sensitivity of all tested cell lines to growth inhibitory effects [4]: high degree of sensitivity

Structure (SMILES): CC(C)Oc1cc2nc(N3CCN(S(=O)(=O)c4ccc(-c5ccccc5)cc4)CC3)nc(N)c2cc1OC(C)C [Compound 45, 2-[4-(Biphenyl-4-sulfonyl)-piperazin-1-yl]-6,7-diisopropoxy-quinazolin-4-yl-amine]
IC50 (PC-3 cells [3]; Homo sapiens, PC-3, 48 h): 24 µM

Structure (SMILES): CCCCOc1cc2nc(N3CCN(S(=O)(=O)c4ccc(-c5ccccc5)cc4)CC3)nc(N)c2cc1OCCCC [Compound 46, 2-[4-(Biphenyl-4-sulfonyl)-piperazin-1-yl]-6,7-dibutoxy-quinazolin-4-ylamine]
IC50 (PC-3 cells [3]; Homo sapiens, PC-3, 48 h): 3.5 ± 0.4 µM

Structure (SMILES): COc1cc2nc(N3CCN(C(=O)C4COc5ccccc5O4)CC3)nc(N)c2cc1OC (centres unmarked) [Doxazosin]
apoptotic death (PC-3 cells [2]; 1% FBS-supplemented RPMI 1640, 10 μM): no appreciable apoptotic death
drug-induced apoptosis (PC-3 cells [2]; 1% FBS-supplemented RPMI 1640, 25 μM and up): susceptible to the drug-induced apoptosis
IC50 (PC-3 cells [2]; read-out: IC50, apoptosis-inducing potency): 20 µM
IC50 (PC-3 cells [3]; 48 h): 45 µM
effect on Akt phosphorylation (Akt): Akt dephosphorylation in a dose- and time-dependent manner
binding affinity with serum proteins (serum proteins): high binding affinity
protection by Akt^T308D/S473D against drug-induced apoptotic death [5]: partial, yet significant, protection
effect on phosphorylation status of ERKs (ERKs): did not affect
inhibitory effect on kinase activity of immunoprecipitated Akt (immunoprecipitated Akt): no inhibitory effects

The next lines start with the values.

IC50 (PC-3 cells [3]; Homo sapiens, PC-3, 48 h): 3.3 ± 0.3 µM
Structure (SMILES): COc1cc2nc(N3CCN(S(=O)(=O)c4ccc(-c5ccc(C(F)(F)F)cc5)cc4)CC3)nc(N)c2cc1OC [Compound 37, 6,7-Dimethoxy-2-[4-(4′-trifluoromethyl-biphenyl-4-sulfonyl)-piperazin-1-yl]-quinazolin-4-yl-amine]

IC50 (PC-3 cells [3]; Homo sapiens, PC-3, 48 h): 7.2 ± 0.5 µM
Structure (SMILES): COc1cc2nc(N3CCN(S(=O)(=O)c4ccc(-c5ccc(S(C)(=O)=O)cc5)cc4)CC3)nc(N)c2cc1OC [Compound 38, 2-[4-(4′-Methanesulfonyl-biphenyl-4-sulfonyl)-piperazin-1-yl]-6,7-dimethoxy-quinazolin-4-ylamine]

IC50 (PC-3 cells [3]; Homo sapiens, PC-3, 48 h): 3.4 ± 0.2 µM
Structure (SMILES): CCCCc1ccc(-c2ccc(S(=O)(=O)N3CCN(c4nc(N)c5cc(OC)c(OC)cc5n4)CC3)cc2)cc1 [Compound 39, 2-[4-(4′-Butyl-biphenyl-4-sulfonyl)-piperazin-1-yl]-6,7-dimethoxy-quinazolin-4-yl-amine]

IC50 (PC-3 cells [3]; Homo sapiens, PC-3, 48 h): 10 ± 2 µM
Structure (SMILES): COc1cc2nc(N3CCN(S(=O)(=O)c4ccc(-c5ccc(C(C)(C)C)cc5)cc4)CC3)nc(N)c2cc1OC [Compound 40, 2-[4-(4′-tert-Butyl-biphenyl-4-sulfonyl)-piperazin-1-yl]-6,7-dimethoxy-quinazolin-4-yl-amine]
